{"source": "patent US4435591A", "about": "“Compound with analgesic, antiinflammatory and antipyretic activity, and pharmaceutical compositions therefrom” (Ausonia Farmaceutici s.r.l., priority 1982, dated 1984)", "key": {"[1]": {"tested_on": "Test of Randall and Selitto, in rats", "assay": "Test of Randall and Selitto in rats", "assay_type": "in vivo", "conditions": "100 mg/Kg oral", "method": "The analgesic activity of AFP 802 has been studied by means of the writhing test with phenylquinone in mice and by means of the test of Randall and Selitto in rats. Test of Randall and Selitto in rats. This test was carried out according to the method of L. Randall and J. Selitto reported in Arch. Int. Pharmacodyn., 1957 III, 409. […] The variations of pressure tolerated without variation in pain have been determined each hour, for 5 consecutive hours and the results are reported in Table 10."}, "[2]": {"tested_on": "Pleuritis caused by carrageenan in rats", "assay": "Pleuritis caused by carrageenan in rats (Vinegar et al)", "assay_type": "in vivo", "conditions": "for Number of leucocytes × 1,000 / Number of leucocytes, % inhibition with respect to the controls: 100 mg/Kg oral"}, "[3]": {"tested_on": "Edema caused by kaolin in rats", "assay": "Edema caused by kaolin in rats (Coulon et al)", "conditions": "oral every 24 hours, 5 consecutive days, dose AFP 802 115, ibuprofen 60"}, "[4]": {"tested_on": "Writhing caused by phenylquinone in mice", "assay": "Writhing caused by phenylquinone in mice (Siegmung et al)", "assay_type": "in vivo", "text": "The analgesic activity of AFP 802 has been studied by means of the writhing test with phenylquinone in mice and by means of the test of Randall and Selitto in rats."}, "[5]": {"tested_on": "subplantar edema caused by carrageenan in rats", "assay": "Edema caused by carrageenan in rats (Winter et al)", "assay_type": "in vivo", "conditions": "oral, AFP 802 187 mg/Kg, ibuprofen 100 mg/Kg", "method": "The anti-inflammatory activity has been investigated by a series of tests using edema caused by carrageenan and kaolin pleuritis caused by carrageenan and arthritis caused by an adjuvant.\nThe plyethysmographic observations of the edema have been carried out every hour for a period of 7 hours after the induction of the edema."}, "[6]": {"tested_on": "Hyperthermia caused by yeast", "assay": "Antipyretic activity, hyperthermia caused by yeast in rats (Boissier and Simon)", "assay_type": "in vivo", "text": "The experiment has been carried out in rats in which the body temperature has been increased by means of yeast by the method according to J. R. Boissier and P. Simon (Therapie, 1962, 17, 1225). […] It is, however, necessary to keep in mind the difference in molecular weight between the two substances under examination."}, "[7]": {"tested_on": "Arthritis caused by the adjuvant of Freund in rats", "assay": "Arthritis caused by the adjuvant in rats (Winter and Nuss)", "assay_type": "in vivo", "conditions": "100 mg/Kg/die oral", "text": "For the evaluation for the efficiency of the substance the following parameters have been considered: diameter of articulations, volume of the hind paws, hematological and hematochemical examination, weight of the suprarenal glands and thymus."}}, "data": [{"smiles": "CC(C)Cc1ccc(C(C)C(=O)O)cc1", "note": "(centres unmarked) [Ibuprofen, ibuprofen, reference compound]", "values": [{"measurement": "% INHIBITION WITH RESPECT TO THE CONTROL, I", "setting": "[1]; area, inflamed paw", "value": 45.41, "unit": "%"}, {"measurement": "% INHIBITION WITH RESPECT TO THE CONTROL, NI", "setting": "[1]; area, not inflamed paw", "value": 65.35, "unit": "%"}, {"measurement": "AREA ABSOLUTE VALUE, I", "setting": "[1]; inflamed paw, area of the increase of the pressure tolerated", "value": "-58.6 ± 25.25"}, {"measurement": "AREA ABSOLUTE VALUE, NI", "setting": "[1]; not inflamed paw, area of the increase of the pressure tolerated", "value": "-39.95 ± 33.48"}, {"measurement": "Number of leucocytes × 1,000", "setting": "[2]; 5 hours", "value": "4,499 × 1,000"}, {"measurement": "Number of leucocytes, % inhibition with respect to the controls", "setting": "[2]; 5 hours", "value": 73.60, "unit": "%"}, {"measurement": "effect in pleuritis (in words)", "setting": "[2]; 24 hours after the administration", "value": "practically inactive"}, {"measurement": "Number of leucocytes × 1,000", "setting": "[2]; 24 hours", "value": "18,470 × 1,000"}, {"measurement": "Number of leucocytes, % inhibition with respect to the controls", "setting": "[2]; 24 hours", "value": 0.92, "unit": "%"}, {"measurement": "% inhibition with respect to the controls", "setting": "[3]; area", "value": 38.24, "unit": "%"}, {"measurement": "Area (area under the curve of the increase of the diameter of the articulations)", "setting": "[3]", "value": 10799.5, "unit": "mm^2"}, {"measurement": "% inhibition with respect to the control", "setting": "[4]; 100 mg/Kg oral", "value": 78.6, "unit": "%"}, {"measurement": "No. of Contorsions", "setting": "[4]; 100 mg/Kg oral", "value": 4.5}, {"measurement": "% inhibition with respect to the control", "setting": "[4]; 200 mg/Kg oral", "value": 86.7, "unit": "%"}, {"measurement": "No. of Contorsions", "setting": "[4]; 200 mg/Kg oral", "value": 2.8}, {"measurement": "% inhibition vs control", "setting": "[5]; area", "value": 65.0, "unit": "%"}, {"measurement": "Area Absolute Value", "setting": "[5]", "value": 102.8}, {"measurement": "% inhibition with respect to control", "setting": "[6]; 100 mg/Kg oral", "value": 121.24, "unit": "%"}, {"measurement": "Rectal temperature", "setting": "[6]; 1 hour after treatment, 100 mg/Kg oral", "value": 37.71, "unit": "°C"}, {"measurement": "Rectal temperature", "setting": "[6]; 2 hours after treatment, 100 mg/Kg oral", "value": 37.43, "unit": "°C"}, {"measurement": "Rectal temperature", "setting": "[6]; 3 hours after treatment, 100 mg/Kg oral", "value": 37.36, "unit": "°C"}, {"measurement": "Rectal temperature", "setting": "[6]; 4 hours after treatment, 100 mg/Kg oral", "value": 36.87, "unit": "°C"}, {"measurement": "Rectal temperature", "setting": "[6]; 5 hours after treatment, 100 mg/Kg oral", "value": 37.12, "unit": "°C"}, {"measurement": "Rectal temperature", "setting": "[6]; Basal, 100 mg/Kg oral group", "value": 38.34, "unit": "°C"}, {"measurement": "ALBUMIN (%)", "setting": "[7]", "value": "68.0 ± 2.0", "unit": "%"}, {"measurement": "GLOBULIN (%) α1", "setting": "[7]", "value": "8.8 ± 1.07", "unit": "%"}, {"measurement": "GLOBULIN (%) α2", "setting": "[7]", "value": "5.5 ± 0.34", "unit": "%"}, {"measurement": "GLOBULIN (%) β1", "setting": "[7]", "value": "13.9 ± 0.45", "unit": "%"}, {"measurement": "GLOBULIN (%) β2", "setting": "[7]", "value": "5.9 ± 0.43", "unit": "%"}, {"measurement": "GLOBULIN (%) γ", "setting": "[7]", "value": "1.9 ± 0.13", "unit": "%"}, {"measurement": "Hematocrit", "setting": "[7]", "value": "45.4 ± 1.04"}, {"measurement": "Leucocytes", "setting": "[7]", "value": "7,946 ± 380.5 × mm^3"}, {"measurement": "Red Cells", "setting": "[7]", "value": "5,265.300 ± 1.003 × mm^3"}, {"measurement": "VES", "setting": "[7]", "value": "1.7 ± 0.9"}, {"measurement": "Σ Diameter D + S, Area", "setting": "[7]; both paws, area under the curve of the increases", "value": "2,616.2"}, {"measurement": "Σ Diameter D + S, % inhibition", "setting": "[7]; both paws", "value": 70.92, "unit": "%"}, {"measurement": "Suprarenal", "setting": "[7]; weight", "value": "65.6 ± 3.4", "unit": "mg"}, {"measurement": "Thymus", "setting": "[7]; weight", "value": "375.0 ± 24.3", "unit": "mg"}]}]}
